Test results published in US20160038454A1, “INTRAVENOUS FORMULATIONS OF […] AS IMMUNOMODULATORS AND […] AGENTS” (priority 2013, published 2016).

Key:
[1] = TK: plasma triptolide levels, Calvert study (emulsion); type: in vivo, rodents; settings: FIG. 1
Experimental: Triptolide prodrugs are generally believed to be safer than triptolide. […] Triptolide prodrugs as an emulsion formulation are believed to have a toxicokinetic profile characterized by a flat AUC with a minimized Cmax. [In conjunction, it was postulated that a sustained inhibition of RNA polymerase is needed for optimum efficacy which in turn requires a pharmcokinetic profile of constant exposure to drug]. […] The no effect dose (“NOAEL”) of PG796(MRx102) again exceeded 1.5 mg/kg/day intravenously for seven days in rodents confirming the initial results. It is interesting to ask why a prodrug of triptolide would be safer than the natural product itself; while not wishing to be bound by theory, perhaps the answer lies in the pharmacokinetic profile of triptolide administered either directly or released from its carrier, PG796(MRx102). […] It also remained above the therapeutic levels (shown as a thick line without symbols). The difference in the Cmax/AUC profile of PG796(MRx102) vs. triptolide is believed to be due to the physiochemical properties of the lipid prodrug/emulsion formulation combination. In general, triptolide prodrugs having a cLogP greater than 0.5 are more lipid-soluble than water soluble and are expected to take longer to convert to the drug form; such characteristics may yield a flatter conversion profile and less of a drug-release Cmax spike.
TK comparison of triptolide levels in Calvert and SRI studies—Males and Females

[2] = system: NF-κB, Mcl-1 and XIAP; settings: cited from earlier work
[3] = Solubility of PG796(MRx102) in triglyceride oils (GTO vs SBO); type: physicochemical; settings: glyceryl trioctanoate vs soybean oil
[4] = PG796(MRx102) purity (peak area %) / stability in emulsions; type: physicochemical
Experimental: Pharmaceutical emulsions are typically prepared at neutral to slightly alkaline pH since they are stabilized by electrostatic repulsion between droplets imparted by pH-sensitive anionic surfactants, such as phosphatidyl ethanolamine, free fatty acid salts, and cholate. However, it was possible that this pH range could be suboptimal for the chemical stability of PG796(MRx102). To test this, emulsions were prepared at different pH values ranging from 4 to 8. Buffers were included to control the pH, and the non-pH sensitive surfactant, sodium dodecyl sulfate was used in place of sodium cholate to assure a negative charge even in the low pH emulsions. All of the formulations were reasonably stable for up to 2 weeks at room temperature. […]

[5] = system: Ba/F3-ITD cells; settings: mice harboring Ba/F3-ITD cells; Carter et al. 2012; cited from earlier work
[6] = system: MV4-11 cells; assay: Synergy with AML drugs in vitro; type: cell-based; settings: MV4-11 cells in vitro
Description: Another consequence of XPB binding is the inhibition of nucleotide excision repair.

SMILES: CC(C)[C@]12O[C@H]1[C@@H]1O[C@]13[C@]1(O[C@H]1C[C@H]1c4c(C(=O)c5ccccc5)oc(OC(=O)c5ccccc5)c4CC[C@@]13C)[C@@H]2O [PG796, 18-deoxo-19-dehydro-18-benzoyloxy-19-benzoyl triptolide]
- triptolide Cmax after prodrug relative to triptolide administered directly ([1]; intravenous, emulsion): approximately one-tenth
- triptolide blood levels over time ([1]; prodrug administered): remained relatively constant
- effect on mRNA levels, NF-κB, Mcl-1 and XIAP [2]: reduced mRNA levels, reduced NF-κB and reduced Mcl-1 and XIAP
- solubility in GTO relative to SBO [3]: about 3.4 fold
- PG796 (MRx102) Purity ([4]; emulsion target pH 4.0 (acetate), 0 hr): 98.9 peak area %
- PG796 (MRx102) Purity ([4]; emulsion target pH 4.0 (acetate), 1 wk): 98.9 peak area %
- PG796 (MRx102) Purity ([4]; emulsion target pH 4.0 (acetate), 2 wk): 97.2 peak area %
- PG796 (MRx102) Purity ([4]; emulsion target pH 4.0 (acetate), 24 hr): 99.3 peak area %
- PG796 (MRx102) Purity ([4]; emulsion target pH 5.0 (acetate), 0 hr): 99.2 peak area %
- PG796 (MRx102) Purity ([4]; emulsion target pH 5.0 (acetate), 1 wk): 99.1 peak area %
- PG796 (MRx102) Purity ([4]; emulsion target pH 5.0 (acetate), 2 wk): 98.3 peak area %
- PG796 (MRx102) Purity ([4]; emulsion target pH 5.0 (acetate), 24 hr): 99.4 peak area %
- PG796 (MRx102) Purity ([4]; emulsion target pH 6.0 (histidine), 0 hr): 99.2 peak area %
- PG796 (MRx102) Purity ([4]; emulsion target pH 6.0 (histidine), 1 wk): 98.9 peak area %
- PG796 (MRx102) Purity ([4]; emulsion target pH 6.0 (histidine), 2 wk): 98.8 peak area %
- PG796 (MRx102) Purity ([4]; emulsion target pH 6.0 (histidine), 24 hr): 99.2 peak area %
- PG796 (MRx102) Purity ([4]; emulsion target pH 7.0 (phosphate), 0 hr): 99.4 peak area %
- PG796 (MRx102) Purity ([4]; emulsion target pH 7.0 (phosphate), 1 wk): 98.8 peak area %
- PG796 (MRx102) Purity ([4]; emulsion target pH 7.0 (phosphate), 2 wk): 91.0 peak area %
- PG796 (MRx102) Purity ([4]; emulsion target pH 7.0 (phosphate), 24 hr): 99.1 peak area %
- PG796 (MRx102) Purity ([4]; emulsion target pH 8.0 (Tris), 0 hr): 98.7 peak area %
- PG796 (MRx102) Purity ([4]; emulsion target pH 8.0 (Tris), 1 wk): 99.1 peak area %
- PG796 (MRx102) Purity ([4]; emulsion target pH 8.0 (Tris), 2 wk): 98.3 peak area %
- PG796 (MRx102) Purity ([4]; emulsion target pH 8.0 (Tris), 24 hr): 99.2 peak area %
- pH dependence of stability of PG796(MRx102) in the emulsion ([4]; pH 4 to 8): not pH-dependent
- leukemia burden [5]: greatly decreased
- survival time [5]: increased
- synergy with cytarabine [6]: synergy was demonstrated
- synergy with idarubicin [6]: synergy was demonstrated
